# Experiments:
# Integrin alpha-4 = target: T1, Integrin alpha-4 (Homo sapiens, UniProt P13612); experiment: Displacement of [125I]VCAMIg from VLA4 expressed in Jurkat cells; format: cell-based
# T1 sequence (P13612 whole entry): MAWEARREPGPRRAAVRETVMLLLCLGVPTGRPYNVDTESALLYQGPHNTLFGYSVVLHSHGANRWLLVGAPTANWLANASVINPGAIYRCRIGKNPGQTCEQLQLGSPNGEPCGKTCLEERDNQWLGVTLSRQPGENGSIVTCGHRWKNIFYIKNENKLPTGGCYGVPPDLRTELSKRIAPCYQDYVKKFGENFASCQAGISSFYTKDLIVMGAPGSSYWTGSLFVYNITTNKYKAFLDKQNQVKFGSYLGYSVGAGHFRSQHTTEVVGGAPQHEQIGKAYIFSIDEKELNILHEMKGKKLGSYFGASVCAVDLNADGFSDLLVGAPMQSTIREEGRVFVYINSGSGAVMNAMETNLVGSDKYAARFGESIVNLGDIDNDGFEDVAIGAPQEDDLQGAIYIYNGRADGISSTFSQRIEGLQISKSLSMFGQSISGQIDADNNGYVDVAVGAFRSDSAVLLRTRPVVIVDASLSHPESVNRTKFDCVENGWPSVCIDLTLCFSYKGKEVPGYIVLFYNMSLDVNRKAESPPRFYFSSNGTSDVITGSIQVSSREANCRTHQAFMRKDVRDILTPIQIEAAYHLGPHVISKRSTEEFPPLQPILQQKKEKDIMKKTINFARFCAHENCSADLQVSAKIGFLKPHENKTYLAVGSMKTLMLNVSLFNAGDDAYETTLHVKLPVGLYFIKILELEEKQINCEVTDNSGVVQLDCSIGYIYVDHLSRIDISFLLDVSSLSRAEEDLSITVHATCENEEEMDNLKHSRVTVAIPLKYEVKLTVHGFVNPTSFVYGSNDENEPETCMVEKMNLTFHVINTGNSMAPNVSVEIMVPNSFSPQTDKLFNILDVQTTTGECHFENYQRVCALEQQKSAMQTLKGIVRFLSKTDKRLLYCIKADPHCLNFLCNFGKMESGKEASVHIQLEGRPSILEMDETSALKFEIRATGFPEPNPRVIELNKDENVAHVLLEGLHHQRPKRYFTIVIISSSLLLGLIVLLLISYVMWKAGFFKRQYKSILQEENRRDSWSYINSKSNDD
# [1] = target: Integrin alpha-4 (Homo sapiens) (UniProt P13612); experiment: Displacement of [125I]VCAMIg from VLA4 expressed in Jurkat cells at 100 uM; format: cell-based
IC50 (Integrin alpha-4) [nM],inhibition [1] [%],Compound
285,–,O=C(O)c1[nH]c(CN(C2CCCCC2)S(=O)(=O)c2cc(Cl)cc(Cl)c2)nc1Cc1ccc2ccccc2c1
–,45,O=C(O)c1[nH]c(CN(C2CCCCC2)S(=O)(=O)c2cc(Cl)cc(Cl)c2)nc1-c1ccc(-c2ccccc2)cc1
–,8,O=C(O)c1[nH]c(C2CCCN2S(=O)(=O)c2cc(Cl)cc(Cl)c2)nc1-c1ccc2ccccc2c1 (stereo not given)
–,30,O=C(O)c1[nH]c(C2CCCN2S(=O)(=O)c2cc(Cl)cc(Cl)c2)nc1Cc1ccc2ccccc2c1 (stereo not given)
237,–,O=C(O)c1nc(CN(C2CCCCC2)S(=O)(=O)c2cc(Cl)cc(Cl)c2)[nH]c1Cc1ccc(-c2ccccc2)cc1

# More lines, now with the values behind:
Compound,IC50 (Integrin alpha-4) [nM],inhibition [1] [%]
O=C(O)[C@H](Cc1ccccc1)NC(=O)[C@@H]1CCCN1S(=O)(=O)c1cc(Cl)cc(Cl)c1,1.4,–
O=C(O)C(Cc1ccccc1)N1C[C@@H]2CCN(S(=O)(=O)c3cc(Cl)cc(Cl)c3)[C@@H]2C1=O (stereo not given in full),2100,–
CC(C)C(c1nc(Cc2ccc3ccccc3c2)c(C(=O)O)[nH]1)N(C)S(=O)(=O)c1cc(Cl)cc(Cl)c1 (stereo not given),2540,–
O=C(O)c1nc(C2CCCN2S(=O)(=O)c2cc(Cl)cc(Cl)c2)sc1-c1ccc2ccccc2c1 (stereo not given),–,19
COc1ccccc1-c1ccc(C[C@H](NC(=O)[C@@H]2CCCN2S(=O)(=O)c2cc(Cl)cc(Cl)c2)C(=O)O)cc1,0.64,–

# Reference: ChEMBL document CHEMBL1141621, “Constraining the amide bond in N-sulfonylated dipeptide VLA-4 antagonists” (Bioorg Med Chem Lett, 2008)
